In patent US9108944B2, “Androgen receptor modulators and uses thereof” (ARAGON PHARMACEUTICALS, INC., priority 2010, dated 2015):

Assays:
AR-VP16 [1] = biological target: T1, AR-VP16 (Homo sapiens, UniProt P10275); test: AR-VP16 DNA Binding Assay, agonist mode (HepG2 cells); assay type: cell-based; settings: Emax >20x DMSO control = agonist
T1 sequence (P10275 560-920 limits assumed): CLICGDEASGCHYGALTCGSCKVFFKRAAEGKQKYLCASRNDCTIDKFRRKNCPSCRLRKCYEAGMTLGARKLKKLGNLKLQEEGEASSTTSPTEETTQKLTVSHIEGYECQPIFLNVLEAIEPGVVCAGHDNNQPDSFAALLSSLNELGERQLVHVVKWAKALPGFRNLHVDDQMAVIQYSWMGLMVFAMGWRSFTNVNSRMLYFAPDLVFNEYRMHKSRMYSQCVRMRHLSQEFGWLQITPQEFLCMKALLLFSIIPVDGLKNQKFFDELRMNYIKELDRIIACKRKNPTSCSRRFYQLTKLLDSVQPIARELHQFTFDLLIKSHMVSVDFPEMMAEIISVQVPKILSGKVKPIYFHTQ

AR-VP16 [2] = biological target: T1, AR-VP16; test: AR-VP16 DNA Binding Assay, antagonist mode (HepG2 cells, 0.1 nM R1881); assay type: cell-based
In short: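 Transfected HepG2 cells expressing AR-VP16 received serially diluted compound in charcoal-stripped-serum RPMI the day after transfection, with 0.1 nM R1881 (final) added only for antagonist testing. After 48 h, cells were lysed for measurement.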

What does the source list for `O=C1N(c2ccc3nnc(C(F)(F)F)n3n2)C(=S)N(c2ccc(OCCc3ccccn3)cc2)C12CCC2` [Compound 155, 5-(4-(2-(Pyridin-2-yl)ethoxy)phenyl)-6-thioxo-7-(3-(trifluoromethyl)-[1,2,4]triazolo[4,3-b]pyridazin-6-yl)-5,7-diazaspiro[3.4]octan-8-one]?
ARVP16 DNA Binding Assay (Agonist mode): Agonist? (AR-VP16 [1]): No (Agonist defined as a compound whose Emax in the ARVP16 DNA Binding Assay (Agonist mode) is >20x DMSO control); IC50 (AR-VP16 [2]): > 1000 nM

With `N#Cc1ncc(N2C(=O)C3(CCC3)N(c3ccc(OCCc4ncccn4)c(F)c3)C2=S)cc1C(F)(F)F` [Compound 189, 5-(5-(3-Fluoro-4-(2-(pyrimidin-2-yl)ethoxy)phenyl)-8-oxo-6-thioxo-5,7-diazaspiro[3.4]octan-7-yl)-3-(trifluoromethyl)picolinonitrile] as the compound, how does the “ARVP16 DNA Binding Assay (Agonist mode): Agonist?” value (from here on “ARVP16 DNA Binding Assay”) (AR-VP16 [1]) read?
Its value is “No (Agonist defined as a compound whose Emax in the ARVP16 DNA Binding Assay (Agonist mode) is >20x DMSO control)”.

And the IC50 (AR-VP16 [2])?
The IC50 was less than 1000 nM.

With `CNC(=O)c1ccc(N2C(=S)N(c3ccc(C#N)c(C(F)(F)F)n3)C(=O)C23CCC3)cc1F` [Compound 35, 4-(7-(5-Cyano-6-(trifluoromethyl)pyridin-2-yl)-8-oxo-6-thioxo-5,7-diazaspiro[3.4]octan-5-yl)-2-fluoro-N-methylbenzamide] as the compound, how does the “ARVP16 DNA Binding Assay” value (AR-VP16 [1]) read?
Its value is “No (Agonist defined as a compound whose Emax in the ARVP16 DNA Binding Assay (Agonist mode) is >20x DMSO control)”.

What about the IC50 (AR-VP16 [2]) of the same compound?
Its IC50 is greater than 1000 nM.

What does the source list for `N#Cc1ccc(N2C(=S)N(c3cnc(C#N)c(C(F)(F)F)c3)C(=O)C23CCC3)cc1` [Compound 12, 5-(5-(4-Cyanophenyl)-8-oxo-6-thioxo-5,7-diazaspiro[3.4]octan-7-yl)-3-(trifluoromethyl)picolinonitrile]?
ARVP16 DNA Binding Assay (Agonist mode): Agonist? (AR-VP16 [1]): No (Agonist defined as a compound whose Emax in the ARVP16 DNA Binding Assay (Agonist mode) is >20x DMSO control); IC50 (AR-VP16 [2]): < 1000 nM

What does the source list for `Cc1cc(N2C(=O)C3(CCC3)N(c3ccc(C(=O)NCC4CCOCC4)c(F)c3)C2=S)cnc1C#N` [Compound 311, 4-(7-(6-Cyano-5-methylpyridin-3-yl)-8-oxo-6-thioxo-5,7-diazaspiro[3.4]octan-5-yl)-2-fluoro-N-((tetrahydro-2H-pyran-4-yl)methyl)benzamide]?
ARVP16 DNA Binding Assay (Agonist mode): Agonist? (AR-VP16 [1]): No (Agonist defined as a compound whose Emax in the ARVP16 DNA Binding Assay (Agonist mode) is >20x DMSO control); IC50 (AR-VP16 [2]): > 1000 nM

How did the “ARVP16 DNA Binding Assay” value (AR-VP16 [1]) turn out when `O=C1N(c2ccc3nnc(C(F)(F)F)n3n2)C(=S)N(c2ccc(O)cc2)C12CCC2` [Compound 2, 5-(4-Hydroxyphenyl)-6-thioxo-7-(3-(trifluoromethyl)-[1,2,4]triazolo[4,3-b]pyridazin-6-yl)-5,7-diazaspiro[3.4]octan-8-one] was run?
The value was “No (Agonist defined as a compound whose Emax in the ARVP16 DNA Binding Assay (Agonist mode) is >20x DMSO control)”.

And the IC50 (AR-VP16 [2])?
Its IC50 is greater than 1000 nM.

How did the “ARVP16 DNA Binding Assay” value (AR-VP16 [1]) turn out when `CC(C)N1CCC(Oc2ccc(N3C(=S)N(c4cnc(C#N)c(C(F)(F)F)c4)C(=O)C34CCC4)cc2)CC1` [Compound 220, 5-(5-(4-((1-Isopropylpiperidin-4-yl)oxy)phenyl)-8-oxo-6-thioxo-5,7-diazaspiro[3.4]octan-7-yl)-3-(trifluoromethyl)picolinonitrile] was run?
The value was “No (Agonist defined as a compound whose Emax in the ARVP16 DNA Binding Assay (Agonist mode) is >20x DMSO control)”.

And the IC50 (AR-VP16 [2])?
The IC50 was less than 1000 nM.

Which “ARVP16 DNA Binding Assay” value (AR-VP16 [1]) does the source give for `CCOC(=O)CCCNC(=O)c1ccc(N2C(=S)N(c3cnc(C#N)c(C(F)(F)F)c3)C(=O)C23CCC3)cc1F` [Compound 247, Ethyl 4-(4-(7-(6-cyano-5-(trifluoromethyl)pyridin-3-yl)-8-oxo-6-thioxo-5,7-diazaspiro[3.4]octan-5-yl)-2-fluorobenzamido)butanoate] here?
The value was “No (Agonist defined as a compound whose Emax in the ARVP16 DNA Binding Assay (Agonist mode) is >20x DMSO control)”.

What about the IC50 (AR-VP16 [2]) of the same compound?
The IC50 was greater than 1000 nM.

Which results are given for `Cc1cc(N2C(=O)C3(CCC3)N(c3ccc(C(=O)Nc4ccccc4)c(F)c3)C2=S)cnc1C#N` [Compound 272, 4-(7-(6-Cyano-5-methylpyridin-3-yl)-8-oxo-6-thioxo-5,7-diazaspiro[3.4]octan-5-yl)-2-fluoro-N-phenylbenzamide]?
ARVP16 DNA Binding Assay (Agonist mode): Agonist? (AR-VP16 [1]): No (Agonist defined as a compound whose Emax in the ARVP16 DNA Binding Assay (Agonist mode) is >20x DMSO control); IC50 (AR-VP16 [2]): < 1000 nM

With `N#Cc1ncc(N2C(=O)C3(CCC3)N(c3ccc(F)c(C(=O)NCCc4cccnc4)c3)C2=S)cc1C(F)(F)F` [Compound 240, 5-(7-(6-Cyano-5-(trifluoromethyl)pyridin-3-yl)-8-oxo-6-thioxo-5,7-diazaspiro[3.4]octan-5-yl)-2-fluoro-N-(2-(pyridin-3-yl)ethyl)benzamide] as the compound, how does the “ARVP16 DNA Binding Assay” value (AR-VP16 [1]) read?
Its value is “No (Agonist defined as a compound whose Emax in the ARVP16 DNA Binding Assay (Agonist mode) is >20x DMSO control)”.

What about the IC50 (AR-VP16 [2]) of the same compound?
Its IC50 is greater than 1000 nM.

With `N#Cc1ncc(N2C(=O)C3(CCC3)N(c3ccccc3Oc3ccccc3)C2=S)cc1C(F)(F)F` [Compound 23, 5-(8-Oxo-5-(2-phenoxyphenyl)-6-thioxo-5,7-diazaspiro[3.4]octan-7-yl)-3-(trifluoromethyl)picolinonitrile] as the compound, how does the “ARVP16 DNA Binding Assay” value (AR-VP16 [1]) read?
The value was “No (Agonist defined as a compound whose Emax in the ARVP16 DNA Binding Assay (Agonist mode) is >20x DMSO control)”.

And the IC50 (AR-VP16 [2])?
Its IC50 is greater than 1000 nM.
